Test results as given in patent US9051591B2, “Bacterium of enterobacteriaceae family producing L-aspartic acid or L-aspartic acid-derived metabolites and a method for producing L-aspartic acid or L-aspartic acid-derived metabolites” (AJINOMOTO CO., INC., priority 2010, dated 2015).
Values joined by “and” are separate entries in the source; they are usually repeats but may differ in a detail not shown here. Equal values may be shown once. Read-outs that look alike come from different tables or passages of the source.

Experiments:
ADH-Re = assay: Screening of substrate specificity, ADH-Re; settings: 20 mM substrate; for Deamination activity, ADH-Re: relative to aspartate, 2 mM NAD^+, pH 9.8; for Amination activity, ADH-Re: relative to oxaloacetate, […] NADH, pH 9
ADH1-Rp = assay: Screening of substrate specificity, ADH1-Rp; settings: relative to aspartate; 20 mM substrate, 2 mM NADP^+, pH 9.8
[1] = target: T1, purified ADH (Polaromonas sp.) (Polaromonas sp., UniProt Q126F5); assay: Screening of alternative substrates for purified ADH; settings: 10 mM, 29° C.; for ability to replace aspartic acid in reverse reaction: 1 mM NAD^+; for ability to replace oxaloacetate in forward reaction: […] NADH, 50 mM NH4Cl
T1 sequence (Q126F5 1-267): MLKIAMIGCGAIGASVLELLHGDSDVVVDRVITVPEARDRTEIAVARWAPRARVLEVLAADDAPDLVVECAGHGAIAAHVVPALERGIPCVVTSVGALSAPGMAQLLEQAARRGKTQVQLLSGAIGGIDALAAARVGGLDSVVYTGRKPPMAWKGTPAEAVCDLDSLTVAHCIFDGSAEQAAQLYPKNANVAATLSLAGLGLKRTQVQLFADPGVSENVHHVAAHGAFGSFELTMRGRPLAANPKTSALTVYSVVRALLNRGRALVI

ADH (Polaromonas sp.) = target: T2, ADH (Polaromonas sp.) (Polaromonas sp., UniProt Q126F5); assay: Screening of substrate specificity, ADH; settings: 20 mM substrate; for Deamination activity, ADH: relative to aspartate, 2 mM NAD^+, pH 9.8; for Amination activity, ADH: relative to oxaloacetate, […] NADH, pH 9
T2 sequence (Q126F5 1-267): T1 sequence (Q126F5 1-267)

ADH-Bj = assay: Screening of substrate specificity, ADH-Bj; settings: relative to aspartate; 20 mM substrate, 2 mM NADP^+, pH 9.8
[2] = target: Rhodopseudomonas palustris ADH1-Rp (Rhodopseudomonas palustris, UniProt Q2J3V1); assay: Kinetic parameters of the Rhodopseudomonas palustris AspDH 1
[3] = target: Bradyrhizobium japonicum ADH-Bj (Bradyrhizobium diazoefficiens, UniProt Q89FY1); assay: Kinetic parameters of the Bradyrhizobium japonicum ADH-Bj
[4] = target: T3, Polaromonas sp. aspartate dehydrogenase (Polaromonas sp., UniProt Q126F5); assay: Regulatory properties of the ADH; settings: for effect on ADH activity in forward and reverse reactions: 29° C., pH 9.8
T3 sequence (Q126F5 1-267): T1 sequence (Q126F5 1-267)

Polaromonas sp. ADH = target: T4, Polaromonas sp. ADH (Polaromonas sp., UniProt Q126F5); settings: Michaelis-Menten plots
T4 sequence (Q126F5 1-267): T1 sequence (Q126F5 1-267)

[5] = target: T5, Ralstonia eutropha ADH-Re (Cupriavidus necator, UniProt Q0K391)
T5 sequence (Q0K391 with tags, fused parts or gaps): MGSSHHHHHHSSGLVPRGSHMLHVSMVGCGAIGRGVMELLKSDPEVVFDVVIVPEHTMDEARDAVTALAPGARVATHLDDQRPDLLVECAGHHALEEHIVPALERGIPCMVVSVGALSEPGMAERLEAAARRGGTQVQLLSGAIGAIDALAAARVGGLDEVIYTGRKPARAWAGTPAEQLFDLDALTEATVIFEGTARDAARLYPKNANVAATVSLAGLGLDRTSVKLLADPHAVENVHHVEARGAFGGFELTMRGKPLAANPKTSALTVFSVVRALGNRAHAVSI

[6] = substrate: NC(=O)c1ccc[n+]([C@@H]2O[C@H](COP(=O)([O-])OP(=O)(O)OC[C@H]3O[C@@H](n4cnc5c(N)ncnc54)[C@H](O)[C@@H]3O)[C@@H](O)[C@H]2O)c1; assay: purified protein, by the assay type
[7] = substrate: N[C@@H](CC(=O)O)C(=O)O; assay: purified protein, by the assay type; settings: other: Aspartate oxidative deamination; Michaelis-Menten plots
[8] = substrate: O=C(O)CC(=O)C(=O)O; assay: purified protein, by the assay type; settings: other: Oxaloacetate reductive amination; Michaelis-Menten plots
[9] = Aspartic acid oxidative deamination
[10] = Aspartate oxidative deamination
[11] = Oxaloacetate reductive amination
[12] = Oxaloacetate reductive amination, Michaelis-Menten plots
[13] = other: Aspartate oxidative deamination
[14] = other: Aspartate oxidative deamination, Michaelis-Menten plots
[15] = other: Aspartic acid oxidative deamination, Michaelis-Menten plots
[16] = other: Aspartic acid oxidative deamination

In the case of `C[C@H](N)C(=O)O` [Alanine], the “Deamination activity, ADH-Re” value (ADH-Re) is reported as “na (no activity (<2%))”, the “Deamination activity, ADH1-Rp” value (ADH1-Rp) is reported as “na (no activity (<2%))” and the “ability to replace aspartic acid in reverse reaction” value (from here on “ability to replace aspartic acid”) [1] is reported as “No activity”. For the same molecule, the “Deamination activity, ADH” value (ADH (Polaromonas sp.)) was “na (no activity (<2%))” and the “Deamination activity, ADH-Bj” value (ADH-Bj) was “na (no activity (<2%))”.

With `N[C@@H](CC(=O)O)C(=O)O` [Aspartic acid] the Km [2, 9] was 13.4 ± 0.5 mM, the Vmax [2, 9] was 5.61 ± 0.08 µmol/min/mg and the kcat [2, 9] was 172 ± 2 min⁻¹. The Km [3, 10] was 27 ± 4 mM, the Vmax [3, 10] was 14.3 ± 0.9 µmol/min/mg and the kcat [3, 10] was 440 ± 30 min⁻¹. The “Deamination activity, ADH-Re” value (ADH-Re) was 100%, the “Deamination activity, ADH1-Rp” value (ADH1-Rp) was 100 ± 8% and the “decrease of enzyme activity in forward reaction” value ([4]; addition of 100 mM) was 3 times. For the same molecule, the Km (Polaromonas sp. ADH; [9]) was 1.3 ± 0.2 mM, the Vmax (Polaromonas sp. ADH; [9]) was 26.2 ± 0.9 µmol/min/mg and the kcat (Polaromonas sp. ADH; [9]) was 720 ± 20 min⁻¹. The “Deamination activity, ADH” value (ADH (Polaromonas sp.)) was 100% and the “Deamination activity, ADH-Bj” value (ADH-Bj) was 100 ± 11%.

With `N[C@@H](CCC(=O)O)C(=O)O` [Glutamate] the “Deamination activity, ADH-Re” value (ADH-Re) was “na (no activity (<2%))”, the “Deamination activity, ADH1-Rp” value (ADH1-Rp) was 4.5 ± 0.4% and the “ability to replace aspartic acid” value [1] was “No activity”. For the same molecule, the “effect on ADH activity in forward and reverse reactions” value (from here on “effect on ADH activity”) ([4]; addition of 1 mM) was “not significantly affected”, the “Deamination activity, ADH” value (ADH (Polaromonas sp.)) was “na (no activity (<2%))” and the “Deamination activity, ADH-Bj” value (ADH-Bj) was 5.5 ± 1.1%.

With `Cl.N` [NH4Cl] the Km [2, 11] was 11 mM and 11.3 mM, the Vmax [2, 11] was 20.2 ± 0.6 µmol/min/mg and the kcat [2, 11] was 620 ± 20 min⁻¹. The Km [3, 11] was 4.3 mM and 4 mM, the Vmax [3, 11] was 48 ± 2 µmol/min/mg and the kcat [3, 11] was 1480 ± 50 min⁻¹. The Km [5, 12] was 12 mM and 11.9 mM, the Vmax [5, 12] was 113 ± 4 µmol/min/mg and the kcat [5, 12] was 3400 ± 120 min⁻¹. For the same molecule, the “inhibition of the reverse reaction of aspartic acid deamination” value ([4]; addition of 1 mM) was “did not significantly inhibit”, the Km (Polaromonas sp. ADH; [11]) was 33 mM and the Vmax (Polaromonas sp. ADH; [11]) was 83 ± 3 µmol/min/mg. It also gave a kcat (Polaromonas sp. ADH; [11]) of 2280 ± 80 min⁻¹.

`O=C(O)CC(=O)C(=O)O` [Oxaloacetate] was tested, and the “Amination activity, ADH” value (ADH (Polaromonas sp.)) was 100 ± 3%.

In the case of `CC(=O)SCCNC(=O)CCNC(=O)[C@H](O)C(C)(C)COP(=O)(O)OP(=O)(O)OC[C@H]1O[C@@H](n2cnc3c(N)ncnc32)[C@H](O)[C@@H]1OP(=O)(O)O` [acetyl-coenzyme A], the “effect on ADH activity” value ([4]; addition of 1 mM) is reported as “not significantly affected”.

For `NC(=O)C[C@H](N)C(=O)O` [asparagine], the “ability to replace aspartic acid” value [1] was “No activity”.

`CC(C)(COP(=O)(O)OP(=O)(O)OC[C@H]1O[C@@H](n2cnc3c(N)ncnc32)[C@H](O)[C@@H]1OP(=O)(O)O)[C@@H](O)C(=O)NCCC(=O)NCCS` [coenzyme A] was tested, and the “effect on ADH activity” value ([4]; addition of 1 mM) was “not significantly affected”.

For `CC[C@H](C)[C@H](N)C(=O)O` [isoleucine], the “ability to replace aspartic acid” value [1] was “No activity”.

For `CC(C)C(=O)C(=O)O` [ketoisovaleriate], the “Amination activity, ADH-Re” value (ADH-Re) was “na (no activity (<0.2%))”, the “ability to replace oxaloacetate in forward reaction” value (shortened to “ability to replace oxaloacetate”) [1] was “No activity” and the “Amination activity, ADH” value (ADH (Polaromonas sp.)) was “na (no activity (<0.2%))”.

With `CCC(C)C(=O)C(=O)O` (stereo not shown) [ketomethylvaleriate] the “Amination activity, ADH-Re” value (ADH-Re) was “na (no activity (<0.2%))”, the “ability to replace oxaloacetate” value [1] was “No activity” and the “Amination activity, ADH” value (ADH (Polaromonas sp.)) was “na (no activity (<0.2%))”.

With `O=C(O)CC(O)C(=O)O` (stereo not shown) [malate] the “effect on ADH activity” value ([4]; addition of 1 mM) was “not significantly affected”.

`CC(=O)C(=O)O` [pyruvate] was tested, and the “ability to replace oxaloacetate” value [1] was “No activity” and the “Amination activity, ADH” value (ADH (Polaromonas sp.)) was “na (no activity (<0.2%))”.

`CC(C)[C@H](N)C(=O)O` [valine] was tested, and the “ability to replace aspartic acid” value [1] was “No activity”.

`CCC(N)C(=O)O` (stereo not drawn) [α-aminobutyrate] was tested, and the “ability to replace aspartic acid” value [1] was “No activity”.

With `CCC(=O)C(=O)O` [α-ketobutyrate] the “Amination activity, ADH-Re” value (ADH-Re) was “na (no activity (<0.2%))”, the “ability to replace oxaloacetate” value [1] was “No activity” and the “Amination activity, ADH” value (ADH (Polaromonas sp.)) was “na (no activity (<0.2%))”.

`O=C(O)CCC(=O)C(=O)O` [α-ketoglutarate] was tested, and the “Amination activity, ADH-Re” value (ADH-Re) was “na (no activity (<0.2%))”.

With NADPH the Km ([5]; amination, summary range over Hill and Michaelis-Menten fits) was 0.39 to 0.9 mM.

B1: Bradyrhizobium japonicum ADH-Bj (Bradyrhizobium diazoefficiens USDA 110) (protein)
chain: MGSSHHHHHHSSGDRRWKVMTDQTASSELRVAIAGLGSIGTKIAAALDQGEGLTLSAVAVRDPAKHQAFLNGLRRPPQVLPIDQLGEAADIVVECAPSSQLRAIVEPAVKRGKAAVVVSVGGLLDNFDLVDLARANGGRIIVPTGALIGLDAVNAAVIGTIHSVKMVTRKPIDGLKGAPFIVHNNIDIDTLREPLKLFEGTAREAAKGFPANLNVAVALSLAGVGPDRTSVQIWADPTVTRNVHRIEVEADSARFSMSIENIPSENPKTGLITALSVIALLRKQRATLCVGT
In the case of B1, the Km [6, 13] is reported as 10 ± 3 mM, the Vmax [6, 13] is reported as 6.5 µmol/min/mg and the kcat [6, 13] is reported as 3.33 ± 0.5 s⁻¹. The kcat/Km [6, 13] was 333 M⁻¹ s⁻¹.

B2: Ralstonia eutropha ADH-Re (Cupriavidus necator H16) (protein)
chain: T5 sequence (Q0K391 with tags, fused parts or gaps)
For B2, the Km [7] was 13 ± 3 mM, the Vmax [7] was 23 µmol/min/mg and the kcat [7] was 11.5 ± 1 s⁻¹. The kcat/Km [7] was 833 M⁻¹ s⁻¹, the Km [6, 14] was 1.7 ± 0.4 mM and the Vmax [6, 14] was 37 µmol/min/mg. The kcat [6, 14] was 18.7 ± 1.5 s⁻¹, the Km [8] was 3.3 ± 0.4 mM and the kcat [8] was 58.3 ± 2.33 s⁻¹.

B3: Polaromonas sp. ADH (Polaromonas sp. JS666) (protein)
chain: T1 sequence (Q126F5 1-267)
B3 was tested, and the Km [6, 15] was 0.424 ± 0.010 mM, the Vmax [6, 15] was 32 µmol/min/mg and the kcat [6, 15] was 14.68 ± 0.1 s⁻¹. The Km [8] was 2.2 ± 0.3 mM, the Vmax [8] was 74 µmol/min/mg and the kcat [8] was 33.8 ± 1.5 s⁻¹.

B4: Rhodopseudomonas palustris ADH1-Rp (Rhodopseudomonas palustris HaA2) (protein)
chain: MRSGRAPQRVAIAGLGAIGKAIARELDRGLDGLTLGAVASGDPEKHRAFLDGLRTTPPVVPLDQLHAHADLVIEAAPSRLLRAIVEPFVSRGRTAIVLSAAALLQNEDLIDLANLNGGQIIVPTGALIGLDAVTAAAVGTIHSVRMITRKPVDGLRGAPFIVDNGIDLDGLREPLKLFEGTAREAGKGFPANLNVAVALSLAGIGPDRTMVEIWADPGVTRNTHRIEVDADSARFAMTIENVPSDNPRTGLITPLSVIALLRKQSAALRVGT
With B4 the Km [6, 16] was 7.0 ± 0.3 mM, the Vmax [6, 16] was 3.11 µmol/min/mg and the kcat [6, 16] was 1.58 ± 0.0333 s⁻¹. The kcat/Km [6, 16] was 227 ± 15 M⁻¹ s⁻¹.
